The target in test [1] is human Gal-1 (hGal-1). The experiment in a line: Competitive binding assay: biotinylated hGal-1 binding to microplate-adsorbed asialofetuin (ASF). The settings on record: Activity on hGal-1; binding of biotinylated hGal-1 to ASF-coated plates; mean values. In outline:
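Biotinylated hGal-1 (300–1000 ng/mL; optionally a cysteine-free all-serine variant) incubated 3 h at 4 °C with compound on asialofetuin-coated plates, then streptavidin-peroxidase 1 h at 4 °C. ABTS readout at OD 410 nm after 30–45 min; IC50 given as mean of several runs.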

The target in test [2] is human Gal-3 (hGal-3) (Homo sapiens (Human), UniProt P17931). The experiment in a line: Competitive binding assay: biotinylated hGal-3 binding to microplate-adsorbed asialofetuin (ASF). As to conditions: Activity on hGal-3; binding of biotinylated hGal-3 to ASF-coated plates; mean values. The procedure, abridged:
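Serially diluted compounds competed with biotinylated human Gal-3 for binding to plate-adsorbed asialofetuin over 3 h at 4 °C. Bound Gal-3 was detected with streptavidin-peroxidase (80 ng/mL, 1 h, 4 °C) and ABTS substrate. IC50 values are means of several measurements.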

Molecules are shown by their SMILES.

Chain of human Gal-3 (hGal-3) (P17931 whole entry): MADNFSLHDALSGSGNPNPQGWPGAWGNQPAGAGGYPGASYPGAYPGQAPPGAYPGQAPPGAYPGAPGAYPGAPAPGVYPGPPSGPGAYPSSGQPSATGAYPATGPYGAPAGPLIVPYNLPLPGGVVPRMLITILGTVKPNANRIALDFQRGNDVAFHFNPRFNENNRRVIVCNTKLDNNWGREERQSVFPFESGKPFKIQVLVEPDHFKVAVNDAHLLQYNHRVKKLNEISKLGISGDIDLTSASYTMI
Chain of human Gal-1 (hGal-1) (P09382 2-135 limits assumed): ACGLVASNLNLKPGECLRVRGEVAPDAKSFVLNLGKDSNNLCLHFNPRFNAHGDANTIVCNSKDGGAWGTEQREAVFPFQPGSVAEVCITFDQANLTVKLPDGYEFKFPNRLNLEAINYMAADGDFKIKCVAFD

What is called IC50 is the midpoint of a concentration-inhibition curve. Higher therefore signals weaker potency in that assay. For `CO[C@@H]1[C@@H](n2cc(-c3cc(F)c(F)c(F)c3)nn2)[C@@H](O)[C@@H](CO)O[C@H]1C(=O)N(Cc1nc2ccccc2cc1Cl)[C@H]1CCCC[C@@H]1O` [Example 65, (2R,3R,4S,5R,6R)-N-((3-chloroquinolin-2-yl)methyl)-5-hydroxy-N-((1S,2S)-2-hydroxycyclohexyl)-6-(hydroxymethyl)-3-methoxy-4-(4-(3,4,5-trifluorophenyl)-1H-1,2,3-triazol-1-yl)tetrahydro-2H-pyran-2-carboxamide], the results for the IC50 in test [1] and in test [2] were 6770 nM and 196 nM, respectively.
For `O=C([C@@H]1O[C@H](CO)[C@H](O)[C@H](n2cc(-c3cc(F)c(F)c(Cl)c3)nn2)[C@H]1O)N(Cc1ccccc1C(F)(F)F)[C@H]1CCCC[C@@H]1O` [Example 66, (2R,3R,4S,5R,6R)-4-(4-(3-chloro-4,5-difluorophenyl)-1H-1,2,3-triazol-1-yl)-3,5-dihydroxy-N-((1S,2S)-2-hydroxycyclohexyl)-6-(hydroxymethyl)-N-(2-(trifluoromethyl)benzyl)tetrahydro-2H-pyran-2-carboxamide], in that order: 534 nM and 95 nM.
With `CC(=O)O[C@@H]1[C@@H](n2cc(-c3cc(F)c(Cl)c(F)c3)nn2)[C@@H](O)[C@@H](CO)O[C@H]1C(=O)N(Cc1ccccc1C(F)(F)F)[C@H]1CCCC[C@@H]1O` [Example 68, (2R,3R,4S,5R,6R)-4-(4-(4-chloro-3,5-difluorophenyl)-1H-1,2,3-triazol-1-yl)-5-hydroxy-2-(((1S,2S)-2-hydroxycyclohexyl)(2-(trifluoromethyl)benzyl)carbamoyl)-6-(hydroxymethyl)tetrahydro-2H-pyran-3-yl acetate], the IC50 is 1170 nM in test [1] and 44 nM in test [2].
For `O=C([C@@H]1O[C@H](CO)[C@H](O)[C@H](n2cc(-c3cc(F)c(Br)c(F)c3)nn2)[C@H]1O)N(Cc1ccccc1C(F)(F)F)[C@H]1CCCC[C@@H]1O` [Example 69, (2R,3R,4S,5R,6R)-4-(4-(4-bromo-3,5-difluorophenyl)-1H-1,2,3-triazol-1-yl)-3,5-dihydroxy-N-((1S,2S)-2-hydroxycyclohexyl)-6-(hydroxymethyl)-N-(2-(trifluoromethyl)benzyl)tetrahydro-2H-pyran-2-carboxamide], in that order: 2570 nM and 84 nM.
In the case of `O=C([C@@H]1O[C@H](CO)[C@H](O)[C@H](n2cc(-c3ccc(Br)c(F)c3)nn2)[C@H]1O)N(Cc1ccccc1C(F)(F)F)[C@H]1CCCC[C@@H]1O` [Example 70, (2R,3R,4S,5R,6R)-4-(4-(4-bromo-3-fluorophenyl)-1H-1,2,3-triazol-1-yl)-3,5-dihydroxy-N-((1S,2S)-2-hydroxycyclohexyl)-6-(hydroxymethyl)-N-(2-(trifluoromethyl)benzyl)tetrahydro-2H-pyran-2-carboxamide], the half-inhibitory concentration (IC50) in test [1] is 615 nM; in test [2], 90 nM.
Turning to `O=C([C@@H]1O[C@H](CO)[C@H](O)[C@H](n2cc(-c3nc(Cl)cs3)nn2)[C@H]1O)N(Cc1ccccc1C(F)(F)F)[C@H]1CCCC[C@@H]1O` [Example 71, (2R,3R,4S,5R,6R)-4-(4-(4-chlorothiazol-2-yl)-1H-1,2,3-triazol-1-yl)-3,5-dihydroxy-N-((1S,2S)-2-hydroxycyclohexyl)-6-(hydroxymethyl)-N-(2-(trifluoromethyl)benzyl)tetrahydro-2H-pyran-2-carboxamide], the half-inhibitory concentration (IC50) in test [1] worked out at 1310 nM; in test [2], 143 nM.
Taken in the same sequence, the figures for `COc1cccc(N(C(=O)[C@@H]2O[C@H](CO)[C@H](O)[C@H](n3cc(-c4cccc(F)c4)nn3)[C@H]2OC)[C@H]2CCCC[C@@H]2O)c1` [Example 73, (2R,3R,4S,5R,6R)-4-(4-(3-fluorophenyl)-1H-1,2,3-triazol-1-yl)-5-hydroxy-N-((1S,2S)-2-hydroxycyclohexyl)-6-(hydroxymethyl)-3-methoxy-N-(3-methoxyphenyl)tetrahydro-2H-pyran-2-carboxamide] were 1540 nM and 69 nM.
For `CO[C@@H]1[C@@H](n2cc(-c3cccc(F)c3)nn2)[C@@H](O)[C@@H](CO)O[C@H]1C(=O)N(c1cc(Cl)cc(C#N)c1)[C@H]1CCCC[C@@H]1O` [Example 74], in that order: 161 nM and 44 nM.
With `CO[C@@H]1[C@@H](n2cc(-c3cccc(F)c3C)nn2)[C@@H](O)[C@@H](CO)O[C@H]1C(=O)N(c1cc(Cl)cc(C#N)c1)[C@H]1CCCC[C@@H]1O` [Example 75, (2R,3R,4S,5R,6R)-N-(3-chloro-5-cyanophenyl)-4-(4-(3-fluoro-2-methylphenyl)-1H-1,2,3-triazol-1-yl)-5-hydroxy-N-((1S,2S)-2-hydroxycyclohexyl)-6-(hydroxymethyl)-3-methoxytetrahydro-2H-pyran-2-carboxamide], the half-maximal inhibitory concentration (IC50) in test [1] amounted to 259 nM; in test [2], 50 nM.
As to `COc1ccc(F)cc1-c1cn([C@H]2[C@@H](O)[C@@H](CO)O[C@@H](C(=O)N(c3cc(Cl)cc(C#N)c3)[C@H]3CCCC[C@@H]3O)[C@@H]2OC)nn1` [Example 76, (2R,3R,4S,5R,6R)-N-(3-chloro-5-cyanophenyl)-4-(4-(5-fluoro-2-methoxyphenyl)-1H-1,2,3-triazol-1-yl)-5-hydroxy-N-((1S,2S)-2-hydroxycyclohexyl)-6-(hydroxymethyl)-3-methoxytetrahydro-2H-pyran-2-carboxamide], the IC50 in test [1] stood at 901 nM; in test [2] it was 42 nM.
As to `COc1cccc(N(C(=O)[C@@H]2O[C@H](CO)[C@H](O)[C@H](n3cc(-c4cc(F)cc(F)c4)nn3)[C@H]2OC)[C@H]2CCCC[C@@H]2O)c1` [Example 79], the IC50 in test [1] was 2110 nM; in test [2] it was 62 nM.
On to `CO[C@@H]1[C@@H](n2cc(-c3cc(F)cc(F)c3)nn2)[C@@H](O)[C@@H](CO)O[C@H]1C(=O)N(c1cc(Cl)cc(C#N)c1)[C@H]1CCCC[C@@H]1O` [Example 80, (2R,3R,4S,5R,6R)-N-(3-chloro-5-cyanophenyl)-4-(4-(3,5-difluorophenyl)-1H-1,2,3-triazol-1-yl)-5-hydroxy-N-((1S,2S)-2-hydroxycyclohexyl)-6-(hydroxymethyl)-3-methoxytetrahydro-2H-pyran-2-carboxamide], for which the half-inhibitory concentration (IC50) in test [1] is 383 nM; in test [2], 25 nM.
`CO[C@@H]1[C@@H](n2cc(-c3cc(F)cc(F)c3)nn2)[C@@H](O)[C@@H](CO)O[C@H]1C(=O)N(c1cc(C)cc(C#N)c1)[C@H]1CCCC[C@@H]1O` [Example 81, (2R,3R,4S,5R,6R)-N-(3-cyano-5-methylphenyl)-4-(4-(3,5-difluorophenyl)-1H-1,2,3-triazol-1-yl)-5-hydroxy-N-((1S,2S)-2-hydroxycyclohexyl)-6-(hydroxymethyl)-3-methoxytetrahydro-2H-pyran-2-carboxamide]: the half-maximal inhibitory concentration (IC50) stood at 1320 nM in test [1] and 73 nM in test [2].
For `COc1cc(C#N)cc(N(C(=O)[C@@H]2O[C@H](CO)[C@H](O)[C@H](n3cc(-c4cc(F)cc(F)c4)nn3)[C@H]2OC)[C@H]2CCCC[C@@H]2O)c1` [Example 82, (2R,3R,4S,5R,6R)-N-(3-cyano-5-methoxyphenyl)-4-(4-(3,5-difluorophenyl)-1H-1,2,3-triazol-1-yl)-5-hydroxy-N-((1S,2S)-2-hydroxycyclohexyl)-6-(hydroxymethyl)-3-methoxytetrahydro-2H-pyran-2-carboxamide], in that order: 1160 nM and 17 nM.
With `CO[C@@H]1[C@@H](n2cc(-c3cc(F)cc(F)c3)nn2)[C@@H](O)[C@@H](CO)O[C@H]1C(=O)N(c1cc(C)cc(Cl)c1)[C@H]1CCCC[C@@H]1O` [Example 83, (2R,3R,4S,5R,6R)-N-(3-chloro-5-methylphenyl)-4-(4-(3,5-difluorophenyl)-1H-1,2,3-triazol-1-yl)-5-hydroxy-N-((1S,2S)-2-hydroxycyclohexyl)-6-(hydroxymethyl)-3-methoxytetrahydro-2H-pyran-2-carboxamide], the IC50 was found to be 2320 nM in test [1] and 26 nM in test [2].
With `CO[C@@H]1[C@@H](n2cc(-c3cc(F)cc(F)c3)nn2)[C@@H](O)[C@@H](CO)O[C@H]1C(=O)N(c1cccc(Br)c1)[C@H]1CCCC[C@@H]1O` [Example 84, (2R,3R,4S,5R,6R)-N-(3-bromophenyl)-4-(4-(3,5-difluorophenyl)-1H-1,2,3-triazol-1-yl)-5-hydroxy-N-((1S,2S)-2-hydroxycyclohexyl)-6-(hydroxymethyl)-3-methoxytetrahydro-2H-pyran-2-carboxamide], the values for the concentration for half-maximal inhibition (IC50) in test [1] and in test [2] were 1900 nM and 25 nM, respectively.
With `CO[C@@H]1[C@@H](n2cc(-c3cc(F)cc(F)c3)nn2)[C@@H](O)[C@@H](CO)O[C@H]1C(=O)N(c1cccc(Cl)c1)[C@H]1CCCC[C@@H]1O` [Example 85, (2R,3R,4S,5R,6R)-N-(3-chlorophenyl)-4-(4-(3,5-difluorophenyl)-1H-1,2,3-triazol-1-yl)-5-hydroxy-N-((1S,2S)-2-hydroxycyclohexyl)-6-(hydroxymethyl)-3-methoxytetrahydro-2H-pyran-2-carboxamide], the results for the IC50 in test [1] and in test [2] were 1690 nM and 35 nM, respectively.
Consider `CO[C@@H]1[C@@H](n2cc(-c3cc(F)cc(F)c3)nn2)[C@@H](O)[C@@H](CO)O[C@H]1C(=O)N(c1cccc(C#N)c1)[C@H]1CCCC[C@@H]1O` [Example 86, (2R,3R,4S,5R,6R)-N-(3-cyanophenyl)-4-(4-(3,5-difluorophenyl)-1H-1,2,3-triazol-1-yl)-5-hydroxy-N-((1S,2S)-2-hydroxycyclohexyl)-6-(hydroxymethyl)-3-methoxytetrahydro-2H-pyran-2-carboxamide], for which the concentration for half-maximal inhibition (IC50) stood at 1850 nM in test [1] and 111 nM in test [2].

The record behind these values is patent US12291519B2, “2-hydroxycycloalkane-1-carbamoyl” (Idorsia Pharmaceuticals Ltd, priority 2019, dated 2025).
